Reference: patent US9604940B2 (Chroma Therapeutics Ltd., priority 2012, dated 2017)
pIC50: −log10 of the molar value.

Key:
CSF1R (FMS) = target: T1, CSF1R (FMS) (Homo sapiens, UniProt P07333); test: CSF1R (FMS) kinase activity, Z'-LYTE biochemical assay (Invitrogen); details: ATP at or close to Km, 60 minute reaction at room temperature, read-out: Inhibitor activity versus CSF-1
T1 construct: purchased Invitrogen (Paisley, UK)
Experimental: CSF1R (FMS) Kinase Activity
The ability of compounds to inhibit CSF1R (FMS) kinase activity was measured in an assay performed by Invitrogen (Paisley, UK). The Z′-LYTE™ biochemical assay employs a fluorescence-based, coupled-enzyme format and is based on the differential sensitivity of phosphorylated and non-phosphorylated peptides to proteolytic cleavage. The peptide substrate is labelled with two fluorophores—one at each end—that make up a FRET pair. In the primary reaction, the kinase transfers the gamma-phosphate of ATP to a single […] residue in a synthetic FRET-peptide. In the secondary reaction, a site-specific protease recognizes and cleaves non-phosphorylated FRET-peptides. Phosphorylation of FRET-peptides suppresses cleavage by the Development Reagent. Cleavage disrupts FRET between the donor (i.e. coumarin) and acceptor (i.e. fluorescein) fluorophores on the FRET-peptide, whereas uncleaved, phosphorylated FRET-peptides maintain FRET. A […] method, which calculates the ratio (the Emission Ratio) of donor emission to acceptor emission after excitation of the donor fluorophore at 400 nm, is used to quantitate reaction progress.
The final 10 μL Kinase Reaction consists of 0.12-12.3 ng CSF1R (FMS), 2 μM Tyr 01 Peptide and ATP in 50 mM HEPES pH 7.5, 0.01% BRIJ-35, 10 mM MgCl2, 1 mM EGTA. The assay is performed at an ATP concentration at, or close to, the Km. After the 60 minute Kinase Reaction incubation at room temperature, 5 μL of a 1:256 dilution of Development Reagent is added. The assay plate is incubated for a further 60 minutes at room temperature and read on a fluorescence plate reader.
Duplicate data points are generated from a ⅓ log dilution series of a stock solution of test compound in DMSO. Nine dilutions steps are made from a top concentration of 10 mM, and a ‘no compound’ blank is included. Data is collected and analysed using XLfit software from IDBS. The dose response curve is curve fitted to model number 205 (sigmoidal dose-response model). From the curve generated, the concentration giving 50% inhibition is determined and reported.

MCP-1 = test: MCSF-stimulation of human whole blood, MCP-1 levels by sandwich ELISA; type: cell-based; details: inhibitor 2 hours before MCSF 50 ng/ml, 22 hrs, MCP-1 in cell-free supernatants, read-out: Inhibitor activity versus MCP-1
Experimental: Macrophage Colony-Stimulating Factor (MCSF)-Stimulation of Human Whole Blood
Whole blood was taken by venous puncture using heparinised vacutainers (Becton Dickinson) and diluted in an equal volume of RPMI1640 tissue culture media (Sigma). 100 μl was plated in V-bottomed 96 well tissue culture treated plates. 2 hours after the addition of the inhibitor in 100 μl of RPMI1640 media, the blood was stimulated with MCSF (Peprotech: #300-25-10 uG) at a final concentration of 50 ng/ml and incubated at 37° C. in 5% CO2 for 22 hrs. MCP-1 levels were measured from cell-free supernatants by sandwich ELISA developed from MCP-1/CCL2 Duoset (R&D Systems #DY279). Additional reagents required for ELISA were purchased from Sigma, (BSA: A3059, 10×PBS: D1408, Tween20: P5927) R&D Systems, (colour reagent: #DY999 and stop solution: #DY994) and Costar (96-well EIA plates: #2592). Assays were carried out following the manufacturer's instructions with the following modifications: Cell-free supernatants were diluted 30:70 in reagent diluent before assay. All incubations except capture antibody were carried out with shaking at 550 rpm. 3 washes were carried out between steps, and incubation times were blocking 1.5 hr, sample/standard and detection antibody incubations 2 hr, HRP incubation 30 min, colour development 20 min. • IC50 values were allocated to one of five ranges as follows: • Range A: IC50<100 nM • Range B: 100 nM<IC50<300 nM • Range C: 300 nM<1050<1000 nM • Range D: 1000 nM<IC50<5000 nM • Range E: IC50>5000 nM • NT=not tested

T1 sequence (P07333 20-972): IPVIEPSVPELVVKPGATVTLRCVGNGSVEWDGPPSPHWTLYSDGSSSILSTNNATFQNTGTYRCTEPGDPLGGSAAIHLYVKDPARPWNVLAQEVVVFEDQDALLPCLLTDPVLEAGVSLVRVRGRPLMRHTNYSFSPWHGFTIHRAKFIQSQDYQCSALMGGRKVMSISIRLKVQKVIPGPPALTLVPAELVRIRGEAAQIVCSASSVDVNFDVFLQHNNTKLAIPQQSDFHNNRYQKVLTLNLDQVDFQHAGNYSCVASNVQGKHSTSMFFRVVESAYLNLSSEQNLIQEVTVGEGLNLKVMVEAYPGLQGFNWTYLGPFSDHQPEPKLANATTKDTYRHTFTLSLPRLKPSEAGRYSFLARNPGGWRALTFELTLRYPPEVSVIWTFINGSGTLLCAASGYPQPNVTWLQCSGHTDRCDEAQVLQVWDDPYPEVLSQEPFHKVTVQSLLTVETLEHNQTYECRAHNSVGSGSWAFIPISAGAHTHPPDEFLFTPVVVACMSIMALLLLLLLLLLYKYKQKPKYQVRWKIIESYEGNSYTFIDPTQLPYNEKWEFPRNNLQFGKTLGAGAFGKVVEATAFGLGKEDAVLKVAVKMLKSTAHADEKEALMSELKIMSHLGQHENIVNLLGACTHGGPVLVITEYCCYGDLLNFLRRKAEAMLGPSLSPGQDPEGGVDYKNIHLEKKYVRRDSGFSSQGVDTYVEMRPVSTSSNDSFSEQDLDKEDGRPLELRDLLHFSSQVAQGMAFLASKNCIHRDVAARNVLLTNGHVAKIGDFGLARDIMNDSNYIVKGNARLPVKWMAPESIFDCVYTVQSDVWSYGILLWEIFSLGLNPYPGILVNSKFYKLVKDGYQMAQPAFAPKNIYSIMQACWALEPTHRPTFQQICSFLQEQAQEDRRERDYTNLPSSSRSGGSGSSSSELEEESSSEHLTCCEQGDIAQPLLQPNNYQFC

| SMILES | pIC50 (CSF1R (FMS)) | pIC50 (MCP-1) |
| --- | --- | --- |
| Nc1ncc(-c2cccc(CNC3(C(=O)OC4CCCC4)CCC3)c2)nc1NCc1c(Cl)cccc1Cl [Example 42, Cyclopentyl 1-[(3-{5-amino-6-[(2,6-dichlorobenzyl)amino]pyrazin-2-yl}benzyl)amino]cyclobutanecarboxylate di-formate] | < 5.30 | 6.00 to 6.52 |
| CC(C)(C)OC[C@H](NCc1cccc(-c2cnc(N)c(NCc3c(Cl)cccc3Cl)n2)c1)C(=O)OC(C)(C)C [Example 44, tert-Butyl N-(3-{5-amino-6-[(2,6-dichlorobenzyl)amino]pyrazin-2-yl}benzyl)-O-tert-butyl-L-serinate] | < 5.30 | < 5.30 |
| CC(C)(C)OC(=O)[C@H]1CC(NCc2cccc(-c3cnc(N)c(NCc4c(Cl)cccc4Cl)n3)c2)CCN1 (stereo partly drawn) [Example 46, tert-Butyl (2R)-4-[(3-{5-amino-6-[(2,6-dichlorobenzyl)amino]pyrazin-2-yl}benzyl)amino]piperidine-2-carboxylate] | > 7.00 | 6.00 to 6.52 |
| Nc1ncc(-c2cccc(CCNC3(C(=O)OC4CCCC4)CCC3)c2)nc1NCc1c(Cl)cccc1Cl [Example 49, Cyclopentyl 1-{[2-(3-{5-amino-6-[(2,6-dichlorobenzyl)amino]pyrazin-2-yl}phenyl)ethyl]amino}cyclobutanecarboxylate] | 5.30 to 6.00 | 5.30 to 6.00 |
| Nc1ncc(-c2cccc(CCNC3CCN[C@@H](C(=O)OC4CCCC4)C3)c2)nc1NCc1c(Cl)cccc1Cl (stereo partly drawn) [Example 50, Cyclopentyl (2R)-4-{[2-(3-{5-amino-6-[(2,6-dichlorobenzyl)amino]pyrazin-2-yl}phenyl)ethyl]amino}piperidine-2-carboxylate] | > 7.00 | 6.52 to 7.00 |
| Nc1ncc(-c2cccc(CCNC3CCN[C@H](C(=O)OC4CCCC4)C3)c2)nc1NCc1c(Cl)cccc1Cl (stereo partly drawn) [Example 51, Cyclopentyl (2S)-4-{[2-(3-{5-amino-6-[(2,6-dichlorobenzyl)amino]pyrazin-2-yl}phenyl)ethyl]amino}piperidine-2-carboxylate] | > 7.00 | 6.52 to 7.00 |

Next, values leading:

| pIC50 (CSF1R (FMS)) | pIC50 (MCP-1) | SMILES |
| --- | --- | --- |
| < 5.30 | 5.30 to 6.00 | CC(C)(NCc1cccc(-c2cnc(N)c(NCc3c(Cl)cccc3Cl)n2)c1)C(=O)OC1CCCC1 [Example 40, Cyclopentyl N-(3-{5-amino-6-[(2,6-dichlorobenzyl)amino]pyrazin-2-yl}benzyl)-2-methylalaninate] |
| < 5.30 | < 5.30 | CC(C)(C)OC[C@H](NCc1cccc(-c2cnc(N)c(NCc3c(Cl)cccc3Cl)n2)c1)C(=O)OC1CCCC1 [Example 43, Cyclopentyl N-(3-{5-amino-6-[(2,6-dichlorobenzyl)amino]pyrazin-2-yl}benzyl)-O-tert-butyl-L-serinate] |
| 5.30 to 6.00 | 5.30 to 6.00 | C[C@H](NCc1cccc(-c2cnc(N)c(NCc3c(Cl)cccc3Cl)n2)c1)C(=O)OC(C)(C)C [Example 45, tert-Butyl N-(3-{5-amino-6-[(2,6-dichlorobenzyl)amino]pyrazin-2-yl}benzyl)-L-alaninate] |
| > 7.00 | 6.00 to 6.52 | CC(C)(C)OC(=O)[C@@H]1CC(NCc2cccc(-c3cnc(N)c(NCc4c(Cl)cccc4Cl)n3)c2)CCN1 (stereo partly drawn) [Example 47, tert-Butyl (2S)-4-[(3-{5-amino-6-[(2,6-dichlorobenzyl)amino]pyrazin-2-yl}benzyl)amino]piperidine-2-carboxylate di-formate] |
| 5.30 to 6.00 | 6.00 to 6.52 | CC(C)(NCCc1cccc(-c2cnc(N)c(NCc3c(Cl)cccc3Cl)n2)c1)C(=O)OC1CCCC1 [Example 48, Cyclopentyl N-[2-(3-{5-amino-6-[(2,6-dichlorobenzyl)amino]pyrazin-2-yl}phenyl)ethyl]-2-methylalaninate] |
| 6.52 to 7.00 | 6.52 to 7.00 | Nc1ncc(-c2cnn(CCNC3CCN[C@@H](C(=O)OC4CCCC4)C3)c2)nc1NCc1c(Cl)cccc1Cl (stereo partly drawn) [Example 55, Cyclopentyl (2R)-4-{[2-(4-{5-amino-6-[(2,6-dichlorobenzyl)amino]pyrazin-2-yl}-1H-pyrazol-1-yl)ethyl]amino}piperidine-2-carboxylate di-formate] |
